Where two headings read alike, the source gives them in different places. Starred links: 1 amine or outer side, 2 acyl side, 3 side chain; linkers in the order of their positions; H or OH if unused. Positions of bridges follow the written chain, without caps; N, C: chain ends. Non-standard residues stand in square brackets, D forms with d. Residues, ends and D or L forms follow the SMILES beside them. *: point of attachment. NMeF = CN[C@@H](Cc1ccccc1)C(=O)O; NMeGABA = CN(CCCC(=O)[*:2])[*:1]; NMeI = CC[C@H](C)[C@H](NC)C(=O)O; NMeβAla = CN(CCC(=O)[*:2])[*:1]; NMeL = CN[C@@H](CC(C)C)C(=O)O; NMeV = CN[C@H](C(=O)O)C(C)C; NMeA = CN[C@@H](C)C(=O)O; Piperidide = C1CCN(*)CC1; β3hA = C[C@H](N)CC(=O)O; Sar = CNCC(=O)O; tBu = CC(C)(C)*
Legend:
[1] = PAMPA (parallel artificial membrane permeability assay); type: in vitro ADME; conditions: PAMPA
In short: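 Artificial membrane was 10% (w/v) egg lecithin plus 0.5% (w/v) cholesterol in dodecane on a PVDF filter. A 10 mM DMSO stock was added at 0.5% (v/v) to donor buffer (50 mM MOPSO, pH 6.5, 5.0% glycocholic acid). After 18 h at 37 °C, LC/MS or LC/UV gave donor and acceptor levels for Pe.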

[2] = Metabolic stability in human hepatic microsome; type: in vitro ADME; conditions: microsomes
[3] = membrane permeation rate (Pe), 50 mM MOPSO buffer pH 6.5 with 5.0% glycocholic acid, 37° C., 18 hours, read-out: iPAMPA Pe
[4] = pH 7.4, human hepatic microsome, NADPH(+), read-out: CL NADPH(+)

| SMILES | Papp at 18 hours, 50 µM [1, 3] [×10⁻⁶ cm/s] | microsomal CLint at 1 uM [2, 4] [µL/min/mg] | Papp at 18 hours, 50 µM ([1]; pH 6.5) [×10⁻⁶ cm/s] | microsomal CLint at 1 uM ([2]; human, pH 7.4, CL NADPH(+)) [µL/min/mg] |
| --- | --- | --- | --- | --- |
| CC[C@H](C)[C@@H]1NC(=O)[C@H](CC(C)C)N(C)C(=O)[C@H](C)NC(=O)CCCN(C)C(=O)C[C@H](C)NC(=O)[C@H]([C@@H](C)O)NC(=O)[C@H](Cc2ccccc2)NC(=O)[C@H](C(C)C)N(C)C(=O)[C@H](CC(C)C)N(C)C1=O [DP-823] (cyclo(A[NMeL]I[NMeL][NMeV]FT[β3hA][NMeGABA])) | 31 | 254 |  |  |
| CC[C@H](C)[C@@H]1NC(=O)[C@H](Cc2ccccc2)NC(=O)[C@H](C)N(C)C(=O)C[C@@H](C(=O)N2CCCCC2)NC(=O)[C@H](CC(C)C)NC(=O)[C@H](Cc2ccccc2)NC(=O)[C@H](Cc2ccccc2)N(C)C(=O)[C@H](CC(C)C)NC(=O)[C@H]([C@@H](C)O)NC(=O)[C@H](CC(C)C)N(C)C1=O [DP-332] ([NMeA]FI[NMeL]TL[NMeF]FLD-Piperidide; lactam N-10) | 14 | 284 |  |  |
| CC[C@H](C)[C@@H]1NC(=O)[C@H](CC(C)C)N(C)C(=O)CN(C)C(=O)[C@H](Cc2ccccc2)NC(=O)[C@H](C(C)C)N(C)C(=O)[C@H](C)N(C)C(=O)[C@H]([C@@H](C)O)NC(=O)[C@H](C)N(C)C(=O)C[C@@H](C(=O)N(C)[C@@H](CC(C)C)C(=O)N[C@H](C(=O)N(C)[C@@H](CC(C)C)C(=O)N[C@@H](C)C(=O)N2CCCCC2)[C@@H](C)O)NC(=O)[C@H](C)NC1=O [DP-581] ([NMeA]T[NMeA][NMeV]F[Sar][NMeL]IAD[NMeL]T[NMeL]A-Piperidide; lactam N-10) | 2.7 | 7 |  |  |
| CC(C)C[C@@H]1NC(=O)[C@H](Cc2ccccc2)N(C)C(=O)[C@H]([C@@H](C)O)NC(=O)[C@H](Cc2ccccc2)N(C)C(=O)[C@H](C)N(C)C(=O)[C@H](C)N(C)C(=O)C[C@@H](C(=O)N2CCCCC2)NC(=O)[C@@H]2CCCN2C1=O [DP-687] ([NMeA][NMeA][NMeF]T[NMeF]LPD-Piperidide; lactam N-8) |  |  | 10 | 10 |
| CC[C@H](C)[C@@H]1NC(=O)[C@H]([C@@H](C)O)NC(=O)[C@H](Cc2ccccc2)NC(=O)[C@H](CC(C)C)NC(=O)[C@@H](C)NC(=O)C[C@@H](C(=O)N2CCCCC2)NC(=O)[C@H](CC(C)C)NC(=O)[C@H](CC(C)C)N(C)C(=O)[C@H](CC(C)C)NC(=O)CNC(=O)[C@H](Cc2ccccc2)NC1=O [DP-321] ([dA]LFTIFGL[NMeL]LD-Piperidide; lactam N-11) | 6.2 | 19 |  |  |
| CC[C@H](C)[C@H]1C(=O)N(C)[C@@H](C)C(=O)N(C)[C@@H](CC(C)C)C(=O)N[C@@H](COC(C)(C)C)C(=O)N(C)[C@@H](CC(C)C)C(=O)N[C@H](C(=O)N2CCCCC2)CC(=O)N(C)[C@@H](C)C(=O)N(C)[C@@H](Cc2ccccc2)C(=O)N[C@@H](C)C(=O)N(C)[C@@H](CC(C)C)C(=O)N[C@@H]([C@@H](C)O)C(=O)N[C@@H](Cc2ccccc2)C(=O)N1C [DP-90] ([NMeA][NMeF]A[NMeL]TF[NMeI][NMeA][NMeL]S(tBu)[NMeL]D-Piperidide; lactam N-12) | 9.1 | 30 |  |  |
| CC[C@H](C)[C@H]1C(=O)N[C@H](C(=O)N2CCCCC2)CC(=O)N[C@H](C)C(=O)N[C@@H]([C@@H](C)O)C(=O)N(C)[C@@H](Cc2ccccc2)C(=O)N[C@@H](CC(C)C)C(=O)N2CCC[C@H]2C(=O)N(C)[C@@H](C(C)C)C(=O)N[C@@H](Cc2ccccc2)C(=O)N(C)CC(=O)N(C)[C@@H](CC(C)C)C(=O)N[C@@H](C)C(=O)N1C [DP-215] ([dA]T[NMeF]LP[NMeV]F[Sar][NMeL]A[NMeI]D-Piperidide; lactam N-12) | 24 | 35 |  |  |
| CC(C)C[C@H]1C(=O)N(C)[C@@H](C)C(=O)N[C@H](C(=O)N2CCCCC2)CC(=O)N(C)[C@@H](C)C(=O)N(C)[C@@H](C)C(=O)N[C@@H](C)C(=O)N(C)[C@@H](C)C(=O)N(C)[C@@H](CC(C)C)C(=O)N(C)[C@@H](Cc2ccccc2)C(=O)N[C@@H]([C@@H](C)O)C(=O)N(C)[C@@H](C)C(=O)N1C [DP-480] ([NMeA][NMeA]A[NMeA][NMeL][NMeF]T[NMeA][NMeL][NMeA]D-Piperidide; lactam N-11) | 6.6 | 15 |  |  |
| CC(C)C[C@H]1C(=O)N[C@H](C(=O)N(C)[C@@H](Cc2ccccc2)C(=O)N[C@@H](C)C(=O)N2CCCCC2)CC(=O)N(C)[C@@H](C)C(=O)N(C)[C@@H](C)C(=O)N[C@@H](C(C)C)C(=O)N(C)[C@@H](C)C(=O)N(C)[C@@H](Cc2ccccc2)C(=O)N[C@@H]([C@@H](C)O)C(=O)N(C)CC(=O)N(C)[C@@H](C)C(=O)N1C [DP-349] ([NMeA][NMeA]V[NMeA][NMeF]T[Sar][NMeA][NMeL]D[NMeF]A-Piperidide; lactam N-10) | 3.9 | 13 |  |  |
| CC(C)C[C@@H]1NC(=O)[C@H](C)NC(=O)[C@H]([C@@H](C)O)NC(=O)[C@H](CC(C)C)NC(=O)[C@H](CC(C)C)NC(=O)[C@H](C(C)C)NC(=O)CCN(C)C(=O)C[C@@H](C(=O)N2CCCCC2)NC(=O)[C@H](CC(C)C)NC(=O)[C@H](Cc2ccccc2)NC(=O)[C@H](CC(C)C)NC1=O [DP-514] ([NMeβAla]VLLTALLFLD-Piperidide; lactam N-11) | 6.8 | 103 |  |  |
| CC(C)C[C@H]1C(=O)N(C)[C@@H](C)C(=O)N(C)[C@@H](C)C(=O)N(C)[C@@H](Cc2ccccc2)C(=O)N[C@@H]([C@@H](C)O)C(=O)N(C)[C@@H](Cc2ccccc2)C(=O)N(C)[C@@H](CC(C)C)C(=O)N2CCC[C@H]2C(=O)N[C@@H](C)CC(=O)N[C@@H](C)C(=O)NCC(=O)N1C [DP-766] (cyclo(AG[NMeL][NMeA][NMeA][NMeF]T[NMeF][NMeL]P[β3hA])) |  |  | 13 | 54 |
| CC(C)C[C@H]1C(=O)N[C@@H]([C@@H](C)O)C(=O)N(C)CC(=O)N(C)[C@@H](Cc2ccccc2)C(=O)N(C)[C@@H](CC(C)C)C(=O)N(C)[C@@H](Cc2ccccc2)C(=O)N(C)[C@@H](CC(C)C)C(=O)N[C@@H](C)C(=O)N[C@H](C(=O)N2CCCCC2)CC(=O)N(C)CCC(=O)N(C)[C@@H](C)C(=O)N1C [DP-471] ([NMeβAla][NMeA][NMeL]T[Sar][NMeF][NMeL][NMeF][NMeL]AD-Piperidide; lactam N-11) | 21 | 30 |  |  |
| CC[C@H](C)[C@@H]1NC(=O)[C@H](Cc2ccccc2)N(C)C(=O)[C@H](CC(C)C)N(C)C(=O)[C@H](Cc2ccccc2)NC(=O)[C@H](C)N(C)C(=O)[C@H]([C@@H](C)O)NC(=O)CCN(C)C(=O)C[C@@H](C(=O)N2CCCCC2)NC(=O)[C@H](CC(C)C)N(C)C(=O)[C@H](C(C)C)N(C)C1=O [DP-427] ([NMeβAla]T[NMeA]F[NMeL][NMeF]I[NMeV][NMeL]D-Piperidide; lactam N-10) | 37 | 141 |  |  |
| CC[C@H](C)[C@H]1C(=O)N(C)[C@@H](CC(C)C)C(=O)N[C@@H](Cc2ccccc2)C(=O)N[C@@H]([C@@H](C)O)C(=O)N[C@@H](CC(C)C)C(=O)N(C)[C@@H](Cc2ccccc2)C(=O)N(C)[C@@H](C(C)C)C(=O)N[C@H](C(=O)N(C)CC(=O)N[C@@H](C)C(=O)N2CCCCC2)CC(=O)N[C@H](C)C(=O)N[C@@H](C)C(=O)N1C [DP-672] ([dA]A[NMeI][NMeL]FTL[NMeF][NMeV]D[Sar]A-Piperidide; lactam N-10) | 13 | 72 |  |  |

— patent publication US9409952B2, “Peptide-compound cyclization method” (Chugai Seiyaku Kabushiki Kaisha, priority 2011, dated 2016)
